Laboratory results published in patent publication US11208433B2, “Peptide for inhibiting skin inflammation and composition for preventing or treating skin inflammation containing the same” (AVIXGEN Inc., priority 2017, dated 2021).

Columns and labels:
[1] = tested on: atopic dermatitis animal model; assay: Histopathological examination of ear epidermis and dermis (H&E scoring); assay type: in vivo, NC/Nga mouse; conditions: infiltration by inflammatory cells, p<0.05, FIGS. 8 and 9; for epidermis score level compared with group 2: hypertrophy, hyperkeratosis
Description: After the ear auricle of the NC/Nga mouse was shaved with a razor, the epilating agent was applied in an appropriate amount for the complete depilation. After the epilating agent was wiped off, Then, 100 mg of the AD-inducing reagent shown in Table 2 as below was uniformly applied to the ear auricle using a micropipette tip, thereby inducing atopic dermatitis for the first time. After shaving with a razor for necessary, 150 μL of a 4% SDS aqueous solution was uniformly applied to the ear auricle using a micropipette, dried with a cold air using a dryer, and air-dried for about 2 to 3 hours. Then, 100 mg of the same AD-inducing reagent was uniformly applied to the ear auricle using a micropipette tip, thereby inducing atopic dermatitis after 2 times. All treatments were carried out twice a week to be 6 times for a total of 3 weeks, thereby producing atopic dermatitis animal model. The mice of groups 2 to 5 were obtained by the atopic dermatitis animal model prepared in Experimental Method 3 as described above. The experimental substance and the control substance were uniformly applied to the ear auricle using a micropipette tip. From the day of the experimental substance administration (Day 0) to the day of the autopsy (Day 14), they were administered once a day for 2 weeks. On the day of the autopsy, ears were removed for the histopathological examination and fixed in 10% neutral buffered formalin solution. The fixed tissues were subject to the general tissue treatment such as reprofiling, dehydration, paraffin embedding, and dissection, thereby preparing specimens for histopathological examination. Then, hematoxylin and eosin (H & E) and TUNEL assays were performed on histopathologic specimens, and the light microscopy (Olympus BX53, Japan) was used to observe histopathologic changes. In the histopathologic evaluation using hematoxylin and eosin staining slides, in order to compare the degree of the lesion with the induced control group, the most severe lesion was selected, and then the hypertrophy, hyperkeratosis and infiltration by inflammatory cells were evaluated in the epidermis. In the dermis, the infiltration by inflammatory cells was evaluated. Scoring criteria are the same as 0 (no symptoms), 1 (mild), 2 (moderate), and 3 (severe) (Taniguchi Y et al 2003).

[2] = tested on: IgE; assay: ELISA analysis of serum IgE in atopic dermatitis animal model; conditions: day of autopsy (Day 14)
[3] = tested on: atopic dermatitis animal model; assay: Ear thickness measurement in atopic dermatitis animal model; assay type: in vivo, NC/Nga mouse; conditions: FIG. 2; for ear thickness compared with induced control group (group 2): 7th and 14th day after administration, tetrapeptide 0.622, ACP-tetrapeptide 4.987, prednisolone 50 μg/ear once a day, p<0.001 or p<0.01
Description: (§1) After the ear auricle of the NC/Nga mouse was shaved with a razor, the epilating agent was applied in an appropriate amount for the complete depilation. After the epilating agent was wiped off, Then, 100 mg of the AD-inducing reagent shown in Table 2 as below was uniformly applied to the ear auricle using a micropipette tip, thereby inducing atopic dermatitis for the first time. After shaving with a razor for necessary, 150 μL of a 4% SDS aqueous solution was uniformly applied to the ear auricle using a micropipette, dried with a cold air using a dryer, and air-dried for about 2 to 3 hours. Then, 100 mg of the same AD-inducing reagent was uniformly applied to the ear auricle using a micropipette tip, thereby inducing atopic dermatitis after 2 times. All treatments were carried out twice a week to be 6 times for a total of 3 weeks, thereby producing atopic dermatitis animal model. The mice of groups 2 to 5 were obtained by the atopic dermatitis animal model prepared in Experimental Method 3 as described above. The experimental substance and the control substance were uniformly applied to the ear auricle using a micropipette tip. From the day of the experimental substance administration (Day 0) to the day of the autopsy (Day 14), they were administered once a day for 2 weeks. Ear thickness was measured for each individual by calipers, and the ear area was photographed. Ear thickness measurement and photographing were performed once a week on the day of starting the experimental substance administration and thereafter.

[4] = tested on: atopic dermatitis animal model; assay: Visual pathological evaluation (skin clinical index) in atopic dermatitis animal model; assay type: in vivo, NC/Nga mouse; conditions: 14th day after administration; p<0.05; FIG. 6
Description: as §1, with “[…] For each individual, 0 (none), 1 (mild), 2 (moderate) and 3 (severe)” for “From the day of the experimental substance administration (Day 0) to the day of the autopsy (Day 14), they”, “recorded” for “administered once a day”, “erythema/hemorrhage, edema, excoriation/erosion” for “2 weeks. Ear thickness was measured for each individual by calipers,”, “scaling/dryness. […]” for “the ear area was photographed. Ear thickness measurement and photographing were performed once a week on the day of starting the experimental substance administration and thereafter.”

[5] = tested on: atopic mouse skin tissues; assay: Immunohistochemical staining of atopic mouse skin tissue (angiogenic marker, inflammatory cells, keratin); assay type: in vivo, NC/Nga mouse
Description: (§2) After the ear auricle of the NC/Nga mouse was shaved with a razor, the epilating agent was applied in an appropriate amount for the complete depilation. After the epilating agent was wiped off, Then, 100 mg of the AD-inducing reagent shown in Table 2 as below was uniformly applied to the ear auricle using a micropipette tip, thereby inducing atopic dermatitis for the first time.
(§3) After shaving with a razor for necessary, 150 μL of a 4% SDS aqueous solution was uniformly applied to the ear auricle using a micropipette, dried with a cold air using a dryer, and air-dried for about 2 to 3 hours. Then, 100 mg of the same AD-inducing reagent was uniformly applied to the ear auricle using a micropipette tip, thereby inducing atopic dermatitis after 2 times. All treatments were carried out twice a week to be 6 times for a total of 3 weeks, thereby producing atopic dermatitis animal model.
(§4) The mice of groups 2 to 5 were obtained by the atopic dermatitis animal model prepared in Experimental Method 3 as described above.
(§5) The experimental substance and the control substance were uniformly applied to the ear auricle using a micropipette tip. From the day of the experimental substance administration (Day 0) to the day of the autopsy (Day 14), they were administered once a day for 2 weeks.
Atopy mouse skin tissues were immersed in Xylene three times for 5 minutes, 100% ethanol for 2 minutes, 95% ethanol for 2 minutes, 90% ethanol for 2 minutes, 70% ethanol for 2 minutes and D.W. for 2 minutes to remove paraffin and to perform hydration. After washing with PBS, they were treated with 0.2% Triton X-100 to increase cell permeability. After re-washing with PBS, they were reacted with blocking solution, 3% bovine serum albumin, for 1 hour. For inflammatory cells and keratin staining, they were reacted with F4/80 (sc-377009, Santa Cruz) and cytokeratin (NB600-579, NOVUSBIO) antibodies, respectively, at room temperature for 2 hours. After washing with PBS, they were treated with Texas Red (ab6787, Abcam) secondary antibody and reacted at room temperature for 60 minutes. The mounting solution was dropped on the tissue of the slide. Then, the tissue was covered with a cover slide, and the sample was observed under a fluorescence microscope. For analysis of the degree of angiogenesis, the atopic skin tissue was reacted with FITC-conjugated isolectin B4 (L2895, Sigma), a blood vessel marker at room temperature for 2 hours. The mounting solution was dropped on the tissue of the slide. Then, the tissue was covered with a cover slide, and the sample was observed under a fluorescence microscope
The mouse skin tissues stained with the respective markers were photographed using a fluorescence microscope (DMil, Leica, Germany), and fluorescence intensities were quantitatively analyzed using an ImageJ program (NIH, Bethesda, Md., USA).

[6] = tested on: VE-cadherin (adherens junction); assay: Recovery of VE-cadherin broken by VEGF in HUVEC (confocal immunofluorescence); assay type: cell-based, Human; conditions: peptide pretreatment 30 minutes, VEGF 20 ng/ml 1 hour, FIGS. 16 and 17
Description: (§6) HUVECs were starved with M199 media supplemented with 1% FBS for 4 hours, inoculated on a 24-well plate containing glass at the number of 1×10^5 cells, and cultured for 24 hours to attach the cells to the glass. HUVECs were pretreated with the acetylated tetrapeptide and the non-acetylated tetrapeptide (—Ac) for 30 minutes and treated with VEGF at a concentration of 20 ng/ml for 1 hour. Thereafter, the cells were washed three times with PBS, fixed in 3.7% formaldehyde for 20 minutes, and treated with PBS containing 0.2% Triton X-100 to increase […] permeability. After blocking with 3% BSA for 1 hour, they were reacted with VE-cadherin (adherens junction) and ZO-1 (tight junction) antibodies at room temperature for 2 hours and washed three times with PBS. They were treated with Cy3 secondary antibodies, reacted at room temperature for 1 hour, washed twice with PBS, and stained with DAPI for 10 minutes. The huvec-attached glass was removed and mounted on a sliding glass.

[7] = tested on: ZO-1 (tight junction); assay: Recovery of ZO-1 broken by VEGF in HUVEC (confocal immunofluorescence); assay type: cell-based, Human; conditions: peptide pretreatment 30 minutes, VEGF 20 ng/ml 1 hour, FIGS. 18 and 19
Description: as §6

[8] = tested on: histamine; assay: ELISA analysis of serum histamine in atopic dermatitis animal model; assay type: in vivo, NC/Nga mouse; conditions: day of autopsy (Day 14)
Description: as §2, §3, §4, §5
On the day of the autopsy, blood samples were collected from the abdominal vein using a syringe. The serum isolated from the blood was analyzed for IgE and histamine using an ELISA kit.

Compound	epidermis score level compared with group 2 [1]	dermis score level compared with group 2 [1]	IgE level compared with group 2 (induced control) ([2]; p<0.001 or p<0.01, FIG. 7)	ear thickness compared with induced control group (group 2) [3]	scaling/dryness level compared with group 2 [4]	angiogenesis (Isolectin B4 staining) ([5]; atopic mouse skin tissue, also similar to prednisolone treated group, FIG. 10)	inflammatory cell inflow (F4/80 staining) ([5]; atopic mouse skin tissue, also similar to prednisolone treated group, FIG. 11)	keratinization and fibrosis (cytokeratin staining) ([5]; atopic mouse skin tissue, also similar to prednisolone treated group, FIG. 12)	anti-atopic effect compared with prednisolone ([5]; treatment amount having a molar ratio lower than 1000 times that of prednisolone, FIG. 13)	damage level of VE-cad caused by VEGF [6]	IgE level compared with prednisolone treated group ([2]; FIG. 7)	IgE level compared with normal control group ([2]; p<0.001 or p<0.01, FIG. 7)	ear thickness compared with normal control group (group 1) ([3]; 14th day after administration, p<0.001)	damage level of ZO-1 caused by VEGF [7]	histamine level compared with prednisolone treated group ([8]; FIG. 7)	histamine level compared with group 2 (induced control) ([8]; p<0.001 or p<0.01, FIG. 7)
C[C@]12C=CC(=O)C=C1CC[C@@H]1[C@@H]2[C@@H](O)C[C@@]2(C)[C@H]1CC[C@]2(O)C(=O)CO [Prednisolone, prednisolone, reference compound]	significantly lower	significantly lower	significantly lower	significantly thinner	significantly lower	–	–	–	–	–	–	–	–	–	–	–
RLYE [Tetrapeptide]	significantly lower	significantly lower	significantly lower	significantly thinner	–	lower than that of the inducted control group	lower than that of the inducted control group	lower than that of the inducted control group	superiority to prednisolone	recovered to a level similar to that of the control group without VEGF treatment	lower than that of the prednisolone treated group	significantly higher	significantly thicker	recovered to a level similar to that of the control group without VEGF treatment	lower than that of the prednisolone treated group	significantly lower
Tetrapeptide (—Ac): non-acetylated tetrapeptides (RLYE)	–	–	–	–	–	–	–	–	–	recovered to a level similar to that of the control group without VEGF treatment	–	–	–	recovered to a level similar to that of the control group without VEGF treatment	–	–
